Target: T1, β-secretase(BACE) (Homo sapiens, UniProt P56817)
T1 construct: purchased Panvera
Test: BACE FS1% Inhibition Assay
Type: biochemical
Details: FS1 substrate; for inhibition at 0.3 µM: read-out: % Inhibition (FS) 0.3 μM; for inhibition at 1 µM: read-out: % Inhibition (FS) 1 μM; for inhibition at 3 µM: read-out: % Inhibition (FS) 3 μM
Procedure, shortened: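 Percent inhibition at each tested concentration, referenced to enzyme-free blank and vehicle-only positive control. Reaction: compound and BACE (4 μg/mL working stock) mixed 20 min at room temperature before FS1 substrate (300 μg/mL working stock), then 1 h at room temperature.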

T1 sequence (P56817 46-501): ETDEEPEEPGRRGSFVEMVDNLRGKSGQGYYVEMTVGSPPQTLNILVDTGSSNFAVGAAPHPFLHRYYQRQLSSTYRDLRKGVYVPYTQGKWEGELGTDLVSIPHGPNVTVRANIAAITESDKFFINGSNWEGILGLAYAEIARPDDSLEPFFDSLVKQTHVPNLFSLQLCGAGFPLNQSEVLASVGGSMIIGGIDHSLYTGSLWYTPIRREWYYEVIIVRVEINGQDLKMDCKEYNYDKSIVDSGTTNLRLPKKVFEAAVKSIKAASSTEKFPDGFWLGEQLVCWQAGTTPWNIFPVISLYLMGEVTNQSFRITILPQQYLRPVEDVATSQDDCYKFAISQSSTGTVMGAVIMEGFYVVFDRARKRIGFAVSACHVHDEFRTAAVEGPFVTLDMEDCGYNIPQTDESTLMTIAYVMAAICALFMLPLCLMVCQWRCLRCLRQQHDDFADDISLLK

| SMILES | % Inhibition (FS) 0.3 μM (0.3 μM test compound) | % Inhibition (FS) 1 μM (1 μM test compound) | % Inhibition (FS) 3 μM (3 μM test compound) | also measured |
| --- | --- | --- | --- | --- |
| Cc1cccc(Sc2ccc3c(c2)CN(Cc2cccc(C(=O)N(C)C4CCCCC4)c2)C(N)=N3)c1 [Compound 405] | 43% | 106% | 118% |  |
| CCCC(=O)NCCN1Cc2cc(-c3cnc4ccccc4c3)ccc2N=C1N [Compound 673] |  |  |  | % Inhibition (FS) (0.3 μM test compound): 34%; % Inhibition (FS) (1 μM test compound): <30%; % Inhibition (FS) (3 μM test compound): <30% |
| CC(C)(C)OC(=O)N1CCC(N2Cc3cc(Oc4ccccc4)ccc3N=C2N)CC1 [Compound 499, 4-(2-Amino-6-phenoxy-4H-quinazolin-3-yl)-piperidine-1-carboxylic acid tert-butyl ester] |  |  |  | inhibition at 0.3 µM (0.3 μM test compound): < 30%; inhibition at 1 µM (1 μM test compound): < 30%; inhibition at 3 µM (3 μM test compound): < 30% |
| NC1=Nc2ccc(-c3ccc4ccccc4c3)cc2CN1CCNC(=O)C1CCCC1 [Compound 664] |  |  |  | % Inhibition (FS) (0.3 μM test compound): <30%; % Inhibition (FS) (1 μM test compound): <30%; % Inhibition (FS) (3 μM test compound): <30% |
| COc1ccc(Sc2ccc3c(c2)CN(Cc2cccc(C(=O)N(C)C4CCCCC4)c2)C(N)=N3)cc1 [Compound 410] | <30% | 39% | 50% |  |
| NC1=Nc2ccc(-c3ccccc3F)cc2CN1CCNC(=O)C12CC3CC(CC(C3)C1)C2 [Compound 644] | 46% | 72% | 104% |  |
| NC1=Nc2ccc(-c3ccccc3Cl)cc2CN1CCNC(=O)C1CCC(C(F)(F)F)CC1 (centres unmarked) [Compound 690] |  |  |  | % Inhibition (FS) (0.3 μM test compound): <30%; % Inhibition (FS) (1 μM test compound): <30%; % Inhibition (FS) (3 μM test compound): 52% |
| CC(C)(C)OC(=O)Nc1cccc(CN2Cc3cc(Oc4ccccc4)ccc3N=C2N)c1 [Compound 224] | <30% | <30% | <30% |  |
| Cc1ccc(-c2ccc3c(c2)CN(CCNC(=O)C2CCCCC2)C(N)=N3)cc1 [Compound 628] | <30% | <30% | 32% |  |
| CC(C)C(CNC(=O)C12CC3CC(CC(C3)C1)C2)N1Cc2cc(Oc3ccccc3)ccc2N=C1N (centres unmarked) [Compound 562] | 106% | 118% | 128% |  |
| COc1cccc(F)c1-c1ccc2c(c1)CN(CCNC(=O)C1CCOCC1)C(N)=N2 [Compound 699] |  |  |  | % Inhibition (FS) (0.3 μM test compound): 31%; % Inhibition (FS) (1 μM test compound): 64%; % Inhibition (FS) (3 μM test compound): 93% |
| CC(C)CC(=O)NCCN1Cc2cc(Oc3ccccc3)ccc2N=C1N [Compound 190] | 51% | 86% | 101% |  |
| CN(C(=O)c1cccc(CN2Cc3cc(Oc4ccc5c(c4)CCCC5)ccc3N=C2N)c1)C1CCCCC1 [Compound 233] | <30% | 32% | 36% |  |
| CCCC(=O)NCCN1Cc2cc(-c3ccccc3F)ccc2N=C1N [Compound 645] | 67% | 57% | 91% |  |
| NC1=Nc2ccc(Oc3ccccc3)cc2CN1C[C@H](NC(=O)C1CCCCC1)C1CCCCC1 [Compound 636, (R)-enantiomer of cyclohexanecarboxylic acid [2-(2-amino-6-phenoxy-4H-quinazolin-3-yl)-1-cyclohexyl-ethyl]-amide] |  |  |  | inhibition at 0.3 µM (0.3 μM test compound): < 30%; inhibition at 1 µM (1 μM test compound): < 30%; inhibition at 3 µM (3 μM test compound): 30% |
| CCCC=Cc1ccc2c(c1)CN(CCNC(=O)C1CCCCC1)C(N)=N2 [Compound 577] | <30% | <30% | <30% |  |

| SMILES | % Inhibition (FS) 0.3 μM (0.3 μM test compound) | % Inhibition (FS) 1 μM (1 μM test compound) | % Inhibition (FS) 3 μM (3 μM test compound) | also measured |
| --- | --- | --- | --- | --- |
| Cc1ccccc1-c1ccc2c(c1)CN(CCNC(=O)C(C)(C)C)C(N)=N2 [Compound 660] | 63% | 86% | 105% |  |
| CN(C(=O)CCC(C1CCCCC1)N1Cc2cc(Oc3ccccc3)ccc2N=C1N)C1(C(=O)O)CCCCC1 (centres unmarked) [Compound 741] |  |  |  | % Inhibition (FS) (0.3 μM test compound): −48%; % Inhibition (FS) (1 μM test compound): −38%; % Inhibition (FS) (3 μM test compound): −25% |
| Cc1cccc(C)c1Oc1ccc2c(c1)CN(Cc1cccc(C(=O)N(C)C3CCCCC3)c1)C(N)=N2 [Compound 475] | <30% | <30% | <30% |  |
| CCCCC(CC)C(=O)NCCN1Cc2cc(-c3cnc4ccccc4c3)ccc2N=C1N (centres unmarked) [Compound 676] |  |  |  | % Inhibition (FS) (0.3 μM test compound): 33%; % Inhibition (FS) (1 μM test compound): <30%; % Inhibition (FS) (3 μM test compound): 44% |
| COC(=O)C(COCc1ccccc1)N(C)C(=O)CCC(C1CCCCC1)N1Cc2cc(Oc3ccccc3)ccc2N=C1N (centres unmarked) [Compound 780] |  |  |  | % Inhibition (FS) (0.3 μM test compound): 69%; % Inhibition (FS) (1 μM test compound): 97%; % Inhibition (FS) (3 μM test compound): 109% |
| CC(C)(C)NS(=O)(=O)c1ccccc1-c1ccc2c(c1)CN(CCNC(=O)C1CCCCC1)C(N)=N2 [Compound 542] | <30% | <30% | 73% |  |
| NC1=Nc2ccc(Oc3ccccc3)cc2CN1C1CCCCN(C(=O)C2CCCCC2)C1 (centres unmarked) [Compound 551] | <30% | <30% | <30% |  |
| COc1cccc(OC)c1Oc1ccc2c(c1)CN(CCC(=O)NC1C3CC4CC(C3)CC1C4)C(N)=N2 (centres unmarked) [Compound 465] | <30% | <30% | <30% |  |
| CSc1ccc(Sc2ccc3c(c2)CN(Cc2cccc(C(=O)N(C)C4CCCCC4)c2)C(N)=N3)cc1 [Compound 413] | <30% | <30% | 53% |  |
| CCc1ccccc1-c1ccc2c(c1)CN(Cc1cccc(C(=O)N(C)C3CCCCC3)c1)C(N)=N2 [Compound 320] | −31% | <30% | <30% |  |
| CC(C)(C)OC(=O)N1CCCCC(N2Cc3cc(Oc4ccccc4)ccc3N=C2N)C1 (centres unmarked) [Compound 510] | <30% | <30% | 37% |  |
| CC(C)COc1ccc2c(c1)CN(Cc1cccc(C(=O)N(C)C3CCCCC3)c1)C(N)=N2 [Compound 518] | <30% | <30% | <30% |  |
| Cc1cccc(Nc2ccc3c(c2)CN(Cc2cccc(C(=O)N(C)C4CCCCC4)c2)C(N)=N3)c1 [Compound 435] | <30% | <30% | 85% |  |
| CN(C(=O)c1cccc(CN2Cc3cc(Oc4ccccc4C4CCCC4)ccc3N=C2N)c1)C1CCCCC1 [Compound 512] | <30% | <30% | 51% |  |
| CN(C(=O)c1cccc(CN2Cc3cc(Nc4ccc5c(c4)OCO5)ccc3N=C2N)c1)C1CCCCC1 [Compound 441] | <30% | 29% | 48% |  |

Continued, in another order:

| % Inhibition (FS) 0.3 μM (0.3 μM test compound) | % Inhibition (FS) 1 μM (1 μM test compound) | % Inhibition (FS) 3 μM (3 μM test compound) | SMILES | also measured |
| --- | --- | --- | --- | --- |
| <30% | <30% | <30% | CN(C(=O)c1ncoc1C(Cc1ccccc1)N1Cc2cc(Oc3ccccc3)ccc2N=C1N)C1CCCCC1 (centres unmarked) [Compound 559] |  |
| <30% | <30% | <30% | COc1ccc(-c2nc3ccccc3s2)c(Oc2ccc3c(c2)CN(Cc2cccc(C(=O)N(C)C4CCCCC4)c2)C(N)=N3)c1 [Compound 469] |  |
| <30% | 33% | <30% | CN(C(=O)c1cccc(CN2Cc3cc(Oc4cccnc4)ccc3N=C2N)c1)C1CCCCC1 [Compound 230] |  |
| 48% | 90% | 108% | NC1=Nc2ccc(Oc3ccccc3)cc2CN1CCNC(=O)C(c1ccccc1)c1ccccc1 [Compound 207] |  |
| <30% | <30% | <30% | CN(C(=O)c1cccc(CN2Cc3cc(Oc4cccc(-c5ccc6ccccc6n5)c4)ccc3N=C2N)c1)C1CCCCC1 [Compound 473] |  |
| <30% | <30% | −3% | CNC(=O)c1ccccc1Sc1ccc2c(c1)CN(Cc1cccc(C(=O)N(C)C3CCCCC3)c1)C(N)=N2 [Compound 416] |  |
| <30% | 26% | 62% | NC1=Nc2ccc(Oc3ccccc3)cc2CN1CCNCC1CCCCC1 [Compound 427] |  |
| <30% | <30% | 50% | CCc1ccccc1Sc1ccc2c(c1)CN(Cc1cccc(C(=O)N(C)C3CCCCC3)c1)C(N)=N2 [Compound 406] |  |
| <30% | <30% | 41% | CC(C)[C@@H](CNC(=O)C1CCCCC1)N1Cc2cc(Oc3ccccc3)ccc2N=C1N [Compound 528] |  |
| <30% | 46% | <30% | CN(C(=O)c1cccc(CN2Cc3cc(Oc4ccccc4CC(N)=O)ccc3N=C2N)c1)C1CCCCC1 [Compound 235] |  |
| <30% | <30% | 49% | COc1ccccc1Sc1ccc2c(c1)CN(Cc1cccc(C(=O)N(C)C3CCCCC3)c1)C(N)=N2 [Compound 412] |  |
|  |  | <30% | NC1=Nc2ccc(Oc3ccccc3)cc2CN1CCNC(=O)C1CC1c1ccccc1 (centres unmarked) [Compound 139] | % Inhibition (FS) 10 μM (10 μM test compound): 61% |
| <30% | 57% | 43% | CN(C(=O)c1cccc(CN2Cc3cc(Oc4ccccc4-c4ccccc4)ccc3N=C2N)c1)C1CCCCC1 [Compound 234] |  |
| 32% | <30% | 51% | NC1=Nc2ccc(-c3ccccc3-c3ccccc3)cc2CN1CCNC(=O)C1CCCCC1 [Compound 544] |  |

From patent publication US8383637B2, “2-amino-quinazoline derivatives useful as inhibitors of β-secretase (BACE)” (Jansssen Pharmaceutica N.V., priority 2004, dated 2013)
